Drawing on PubChem BioAssay AID1347408 (Pan Lab, Icahn School of Medicine at Mount Sinai, 2020), this text covers IC50 for eleven compounds.

Records with an inconclusive call do not appear. Activity calls are given as the source filed them.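 How the source made its calls: active means IC50 half-inhibiting concentration at or below 10 micromolar; inconclusive means IC50 above 10 and up to 20 micromolar; inactive means IC50 above 20 micromolar.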

Sequence of E3 ubiquitin-protein ligase RBX1 (Homo sapiens) + Cullin-1 (Homo sapiens) (P62877 whole entry, looked up): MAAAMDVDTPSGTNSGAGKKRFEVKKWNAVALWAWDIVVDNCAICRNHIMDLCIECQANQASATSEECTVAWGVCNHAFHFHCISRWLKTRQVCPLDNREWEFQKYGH
Sequence of E3 ubiquitin-protein ligase RBX1 (Homo sapiens) + Cullin-1 (Homo sapiens) (Q13616 whole entry, looked up): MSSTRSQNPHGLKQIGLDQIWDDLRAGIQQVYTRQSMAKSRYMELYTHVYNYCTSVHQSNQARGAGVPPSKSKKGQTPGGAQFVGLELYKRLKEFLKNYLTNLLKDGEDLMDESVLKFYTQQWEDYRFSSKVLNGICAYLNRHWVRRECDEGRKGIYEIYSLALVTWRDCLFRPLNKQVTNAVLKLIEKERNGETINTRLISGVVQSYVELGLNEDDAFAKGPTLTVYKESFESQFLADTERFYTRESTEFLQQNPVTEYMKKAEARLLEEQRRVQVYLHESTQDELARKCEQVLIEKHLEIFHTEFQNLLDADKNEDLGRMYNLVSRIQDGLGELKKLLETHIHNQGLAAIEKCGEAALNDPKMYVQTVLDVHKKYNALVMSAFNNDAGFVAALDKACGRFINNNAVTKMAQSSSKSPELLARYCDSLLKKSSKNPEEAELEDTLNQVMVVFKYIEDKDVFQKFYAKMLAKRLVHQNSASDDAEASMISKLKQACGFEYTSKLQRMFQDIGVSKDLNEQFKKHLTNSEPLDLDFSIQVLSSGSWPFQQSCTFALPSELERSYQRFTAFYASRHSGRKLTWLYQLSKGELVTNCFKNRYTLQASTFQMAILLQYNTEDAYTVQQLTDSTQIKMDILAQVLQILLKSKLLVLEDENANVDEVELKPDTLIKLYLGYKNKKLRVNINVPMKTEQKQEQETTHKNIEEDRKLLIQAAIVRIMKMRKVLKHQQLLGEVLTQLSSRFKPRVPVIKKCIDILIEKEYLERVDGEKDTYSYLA

The assay addresses E3 ubiquitin-protein ligase RBX1 (Homo sapiens) + Cullin-1 (Homo sapiens) (UniProt P62877+Q13616). The assay is described as follows: ROC1-CUL1 CTD ubiquitination inhibitors, dose response, biochemical, FRET, E1/Cdc34 cascade (AID 1347408). Conditions: in vitro di-Ub FRET.
For orientation: IC50 means the point on the concentration scale where inhibition reaches its midpoint. Turning to `Cc1ccc(NC(=O)c2ccc(Cl)cc2Cl)c(S(=O)(=O)O)c1`, the IC50 result was “inactive”.

Regarding `Cc1ccc([C@@H]2Nc3c(ccc(C(=O)O)c3C)[C@@H]3C=CC[C@@H]32)cc1`, the IC50 entry is “inactive”.

For the compound `CCNc1ccc(Br)cc(C(=O)/C=C/c2c(Cl)cccc2Cl)c1=O`, the IC50 entry is “inactive”.

Regarding `CN(CCC(=O)C=Cc1ccc(Cl)c(Cl)c1)CCc1ccc2c(c1)OCO2`, the IC50 entry was “inactive”.

With `NCCCSc1nc2c(c(=O)n1Cc1ccccc1)C1(CCCCC1)Cc1ccccc1-2`, the IC50 result is “inactive”.

On to `Cc1ccc2c(c1)-c1c(c(C(=O)N3CCN(c4cc(C)ccc4C)CC3)nn1C)CS2`, for which the IC50 entry was “inactive”.

As to `COc1ccc(C=C2C(=O)N(Cc3ccco3)C(=O)N(C(C)C)C2=O)cc1`, the IC50 result is “inactive”.

On to `CCOc1ccc2nc3cc(NC(=O)c4ccco4)ccc3c(N)c2c1`, for which the IC50 is 4.8 µM.

As to `CCOc1cccc2c1N[C@@H](c1ccc(C(=O)O)cc1)[C@H]1CC=C[C@@H]21`, the IC50 entry is “inactive”.

For the compound `CNc1ccccc(C(=O)C=Cc2ccc3c(c2)OCO3)c1=O`, the IC50 result is “inactive”.

Turning to `CCCCCCCCCOc1ccc(C#CC(=O)O)cc1`, the IC50 is 4.2 µM.
